# Test results: patent US12257287B2, “Glucagon-derived peptide and use thereof” (Tianjin Institute of Pharmaceutical Research Co., Ltd., priority 2018, dated 2025)
# Marks after values point to notes of the source that are not given here. Numbered stars: 1 amine (or outer) side, 2 acyl side, 3 side chain; on linkers, the order of the positions; unused ones are H or OH. Square brackets hold non-standard residues; d marks the D form. Side chains are listed from the residue outwards. Peptide text beside a SMILES is read from it. * marks the point of attachment. C18 diacid = O=C(O)CCCCCCCCCCCCCCCCC(=O)*; γGlu = O=C(O)[C@H](CCC(=O)[*:2])N[*:1]; AEEA = NCCOCCOCC(=O)O; Aib = CC(C)(N)C(=O)O
# How the values were obtained:
# [1] = Effect on body weight of DIO mice after 14 days' administration; type: in vivo, C57BL/6J mice; settings: DIO mice; for body weight change rate, Table 3: subcutaneous injection every day for 14 days, (initial−last)/initial, positive values indicate a decrease
# Method in brief: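 C57BL/6J mice on H10060 high-fat diet for 34 weeks (DIO; 45.0–52.0 g), 5 per group, dosed subcutaneously once daily for 14 days; controls received saline. Body weight change (%) = (initial − last-day weight)/initial weight; positive values mean loss.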
# physchem = type: physicochemical
# [2] = Short-term administration: food intake and body weight in DIO mice; type: in vivo; settings: 30 nmol/kg once every 24 h, twice, − decrease; for Rate of change in food intake (%): at 48 hours vs day before administration; for Body weight change: at 48 hours
# Method in brief: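 DIO mice (mean body weight 52.5 g), 5 per group, dosed at 30 nmol/kg every 24 h for two doses, in 10 mM PBS pH 7.4; controls received solvent. Food intake and body weight at 48 h expressed as change rate versus the day before dosing.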
# human GLP-1 receptor = target: T1, human GLP-1 receptor (Homo sapiens, UniProt P43220); assay: GLP-1 receptor mediated cAMP production in vitro; type: cell-based; settings: cells transfected with human GLP-1 receptor, 20 min at 37° C., read-out: GLP-1R (nM EC50)
# T1 construct: expressed in transfected cells; host or cells: Chinese guinea pig lung cells [sic]
# T1 sequence (P43220 24-463): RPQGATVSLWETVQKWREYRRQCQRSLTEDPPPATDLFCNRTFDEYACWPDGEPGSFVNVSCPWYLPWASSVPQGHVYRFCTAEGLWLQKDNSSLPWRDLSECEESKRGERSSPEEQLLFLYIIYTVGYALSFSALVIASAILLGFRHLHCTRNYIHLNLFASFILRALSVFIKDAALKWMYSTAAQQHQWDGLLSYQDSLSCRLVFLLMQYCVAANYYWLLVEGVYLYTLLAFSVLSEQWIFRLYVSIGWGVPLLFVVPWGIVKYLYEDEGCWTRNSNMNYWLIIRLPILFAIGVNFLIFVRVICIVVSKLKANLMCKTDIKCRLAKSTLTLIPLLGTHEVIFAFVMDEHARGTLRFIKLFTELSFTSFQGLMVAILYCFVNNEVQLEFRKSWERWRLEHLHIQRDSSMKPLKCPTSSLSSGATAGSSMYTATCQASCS
# Text: (§1) The medium was removed, the cells were lysed, and cAMP values were detected referring to the detection method described for the assay kit.
# [3] = Glucose tolerance test in glucose-loaded DIO mice; type: in vivo; settings: for AUC of blood glucose, Table 4: DIO mice fasted 16 h, glucose 1 g/kg i.p. 1 h after s.c. administration, 0.5, 1, 1.5 h; for AUC reduction rate (%), Table 4: blood glucose inhibition rate compared with model control group, glucose 1 g/kg i.p.
# Method in brief: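 DIO mice fasted 16 h received compound subcutaneously; 1 h later, glucose 1 g/kg was given intraperitoneally. Blood glucose measured at 0.5, 1 and 1.5 h; AUC compared with model control group to give blood glucose inhibition rate (%).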
# GC receptor = target: T2, GC receptor (Homo sapiens, UniProt P47871); assay: GC receptor mediated cAMP production in vitro (HEK293 cells transfected with GC receptor); type: cell-based; settings: 20 min at 37° C., read-out: GCGR (nM EC50)
# T2 construct: expressed in transfected cells; host or cells: HEK293 cells
# T2 sequence (P47871 26-477): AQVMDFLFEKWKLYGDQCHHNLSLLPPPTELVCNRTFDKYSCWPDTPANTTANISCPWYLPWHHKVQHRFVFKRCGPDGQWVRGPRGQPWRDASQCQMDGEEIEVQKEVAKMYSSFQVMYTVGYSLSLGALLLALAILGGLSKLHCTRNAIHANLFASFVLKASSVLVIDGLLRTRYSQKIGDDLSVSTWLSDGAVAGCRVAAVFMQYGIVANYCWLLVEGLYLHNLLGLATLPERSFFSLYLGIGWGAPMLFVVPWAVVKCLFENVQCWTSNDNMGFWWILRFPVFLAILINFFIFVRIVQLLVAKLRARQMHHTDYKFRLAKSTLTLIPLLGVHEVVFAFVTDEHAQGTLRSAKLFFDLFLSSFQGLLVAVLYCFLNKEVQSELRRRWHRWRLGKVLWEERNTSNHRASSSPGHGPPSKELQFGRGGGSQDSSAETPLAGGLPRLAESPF
# Text: as §1
# [4] = Accelerated chemical stability in injection solvent system (HPLC-UV); type: physicochemical; settings: 14 days, phosphate buffer pH 7.3 with Tween 80 and phenol, main peak area vs day 0
# Method in brief: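 Compound dissolved in 10 mM pH 8.5 sodium hydrogen phosphate buffer, adjusted to pH 7.3, with Tween 80 and phenol added. Solutions stored 14 days at 10 °C and 37 °C; HPLC-UV main-peak area by normalisation compared against day 0.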
# [5] = pH 7.5, Solubility, pH 7.5, 10 mM phosphate buffer
# [6] = pH 7.5, Solubility, pH 7.5, 20 mM phosphate buffer
# [7] = pH 8, Solubility, pH 8.0, 10 mM phosphate buffer
# [8] = pH 8, Solubility, pH 8.0, 20 mM phosphate buffer
# 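Throughout, for Solubility, pH 7.5, 20 mM phosphate buffer: compound added at 2 mg per mL of phosphate buffer, with the dissolved amount determined in the supernatant.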
# 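Throughout, for Solubility: compound added at 2 mg per mL of phosphate buffer, with the dissolved amount determined in the supernatant.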
solubility (physchem; [5]),solubility (physchem; [6]),solubility (physchem; [7]),solubility (physchem; [8]),EC50 (human GLP-1 receptor),EC50 (GC receptor),"Solubility, pH 7.5, 20 mM phosphate buffer (physchem; pH 7.5)",Change in purity % (10° C.) ([4]; 10° C.),Change in purity % (37° C.) ([4]; 37° C.),Compound,"body weight reduction (in words) ([1]; 14 days, conclusions on Tables 3 and 5)",Rate of change in food intake (%) [2],Body weight change [2],"glucose tolerance / blood glucose lowering (in words) ([3]; DIO mice, conclusions on Tables 4 and 6)","body weight change rate, Table 3 [1]","AUC of blood glucose, Table 4 [3]","AUC reduction rate (%), Table 4 ([3]; DIO mice)"
1260 µg/mL,1080 µg/mL,1920 µg/mL,1180 µg/mL,0.219 nM,0.274 nM,,,,CC(C)C[C@H](NC(=O)[C@H](Cc1c[nH]c2ccccc12)NC(=O)[C@H](CCC(=O)O)NC(=O)[C@@H](NC(=O)[C@H](Cc1ccccc1)NC(=O)[C@H](CCC(=O)O)NC(=O)[C@H](CCCCNC(=O)COCCOCCNC(=O)COCCOCCNC(=O)CC[C@H](NC(=O)CCCCCCCCCCCCCCCCC(=O)O)C(=O)O)NC(=O)[C@H](C)NC(=O)[C@H](CCCNC(=N)N)NC(=O)[C@H](CCCCN)NC(=O)[C@H](CCC(=O)O)NC(=O)[C@H](CCC(=O)O)NC(=O)[C@H](CC(C)C)NC(=O)[C@H](Cc1ccc(O)cc1)NC(=O)[C@H](CCCCN)NC(=O)[C@H](CO)NC(=O)[C@H](Cc1ccc(O)cc1)NC(=O)[C@H](CC(=O)O)NC(=O)[C@H](CO)NC(=O)[C@@H](NC(=O)[C@H](Cc1ccccc1)NC(=O)[C@@H](NC(=O)CNC(=O)[C@H](CCC(N)=O)NC(=O)C(C)(C)NC(=O)[C@@H](N)Cc1c[nH]cn1)[C@@H](C)O)[C@@H](C)O)C(C)C)C(=O)N[C@@H](CCC(=O)O)C(=O)N[C@@H](C)C(=O)NCC(=O)NCC(=O)N1CCC[C@H]1C(=O)N[C@@H](CO)C(=O)N[C@@H](CO)C(=O)NCC(N)=O [Compound 54] (H-H[Aib]QGTFTSDYSKYLEEKRAK([AEEA-AEEA-γGlu-C18 diacid])EFVEWLEAGGPSSG-NH2; N-terminus assumed),significantly reduced body weight,−35%,-0.9 g,significantly improved glucose tolerance,,,
> 2000 µg/mL,> 2000 µg/mL,,,0.219 nM,0.0352 nM,,,,"CCCCCCCCCCCCCCCC(=O)N[C@@H](CCC(=O)N[C@@H](CCC(=O)NCCCC[C@H](NC(=O)[C@H](CC(=O)O)NC(=O)[C@H](CO)NC(=O)[C@@H](NC(=O)[C@H](Cc1ccccc1)NC(=O)[C@@H](NC(=O)CNC(=O)[C@H](CCC(N)=O)NC(=O)C(C)(C)NC(=O)[C@@H](N)Cc1c[nH]cn1)[C@@H](C)O)[C@@H](C)O)C(=O)N[C@@H](CO)C(=O)N[C@@H](CCCCN)C(=O)N[C@@H](Cc1ccc(O)cc1)C(=O)N[C@@H](CC(C)C)C(=O)N[C@@H](CCC(=O)O)C(=O)N[C@@H](CCC(=O)O)C(=O)N[C@@H](CCCNC(=N)N)C(=O)N[C@@H](C)C(=O)N[C@@H](C)C(=O)N[C@@H](CCCCN)C(=O)N[C@@H](CCC(=O)O)C(=O)N[C@@H](Cc1ccccc1)C(=O)N[C@H](C(=O)N[C@@H](CCC(=O)O)C(=O)N[C@@H](Cc1c[nH]c2ccccc12)C(=O)N[C@@H](CC(C)C)C(=O)N[C@@H](CCC(=O)O)C(=O)N[C@@H](C)C(=O)NCC(=O)NCC(=O)N1CCC[C@H]1C(=O)N[C@@H](CO)C(=O)N[C@@H](CO)C(=O)NCC(N)=O)C(C)C)C(=O)O)C(=O)O [Compound 2] (HELM PEPTIDE1{H.[Aib].Q.G.T.F.T.S.D.K.S.K.Y.L.E.E.R.A.A.K.E.F.V.E.W.L.E.A.G.G.P.S.S.G.[am]}|PEPTIDE2{[CCCCCCCCCCCCCCCC(=O)[*:2]].[gGlu].[gGlu]}$PEPTIDE1,PEPTIDE2,10:R3-3:R2$$$V2.0; N-terminus assumed)",,,,,22.0%,8.06 ± 2.06 mmol·h/L,61.9** %
60 µg/mL,,170 µg/mL,90 µg/mL,20.7 nM,0.1 nM,Insoluble,,,"CCCCCCCCCCCCCCCC(=O)N[C@@H](CCC(=O)N[C@@H](CCC(=O)NCCCC[C@H](NC(=O)[C@H](CC(=O)O)NC(=O)[C@H](CO)NC(=O)[C@@H](NC(=O)[C@H](Cc1ccccc1)NC(=O)[C@@H](NC(=O)CNC(=O)[C@H](CCC(N)=O)NC(=O)C(C)(C)NC(=O)[C@@H](N)Cc1c[nH]cn1)[C@@H](C)O)[C@@H](C)O)C(=O)N[C@@H](CO)C(=O)N[C@@H](CCCCN)C(=O)N[C@@H](Cc1ccc(O)cc1)C(=O)N[C@@H](CC(C)C)C(=O)N[C@@H](CCC(=O)O)C(=O)N[C@@H](CCC(=O)O)C(=O)N[C@@H](CCCNC(=N)N)C(=O)N[C@@H](C)C(=O)N[C@@H](C)C(=O)N[C@@H](CCCCN)C(=O)N[C@@H](CCC(=O)O)C(=O)N[C@@H](Cc1ccccc1)C(=O)N[C@H](C(=O)N[C@@H](C)C(=O)N[C@@H](Cc1c[nH]c2ccccc12)C(=O)N[C@@H](CC(C)C)C(=O)N[C@@H](CCCCN)C(=O)N[C@@H](CCC(=O)O)C(=O)NCC(=O)NCC(=O)N1CCC[C@H]1C(=O)N[C@@H](CO)C(=O)N[C@@H](CO)C(=O)NCC(N)=O)C(C)C)C(=O)O)C(=O)O [Compound 3] (HELM PEPTIDE1{H.[Aib].Q.G.T.F.T.S.D.K.S.K.Y.L.E.E.R.A.A.K.E.F.V.A.W.L.K.E.G.G.P.S.S.G.[am]}|PEPTIDE2{[CCCCCCCCCCCCCCCC(=O)[*:2]].[gGlu].[gGlu]}$PEPTIDE1,PEPTIDE2,10:R3-3:R2$$$V2.0; N-terminus assumed)",,,,,22.0%,8.66 ± 2.14 mmol·h/L,59.1** %
1820 µg/mL,1220 µg/mL,> 2000 µg/mL,> 2000 µg/mL,0.051 nM,0.024 nM,,−0.9%,−3.7%,"CCCCCCCCCCCCCCCC(=O)N[C@@H](CCC(=O)N[C@@H](CCC(=O)NCCCC[C@H](NC(=O)[C@H](CC(=O)O)NC(=O)[C@H](CO)NC(=O)[C@@H](NC(=O)[C@H](Cc1ccccc1)NC(=O)[C@@H](NC(=O)CNC(=O)[C@H](CCC(N)=O)NC(=O)C(C)(C)NC(=O)[C@@H](N)Cc1c[nH]cn1)[C@@H](C)O)[C@@H](C)O)C(=O)N[C@@H](CO)C(=O)N[C@@H](CCCCN)C(=O)N[C@@H](Cc1ccc(O)cc1)C(=O)N[C@@H](CC(C)C)C(=O)N[C@@H](CCC(=O)O)C(=O)N[C@@H](CCC(=O)O)C(=O)N[C@@H](CCCNC(=N)N)C(=O)N[C@@H](C)C(=O)N[C@@H](C)C(=O)N[C@@H](CCCCN)C(=O)N[C@@H](CCC(=O)O)C(=O)N[C@@H](Cc1ccccc1)C(=O)N[C@H](C(=O)N[C@@H](C)C(=O)N[C@@H](Cc1c[nH]c2ccccc12)C(=O)N[C@@H](CC(C)C)C(=O)N[C@@H](CCC(=O)O)C(=O)N[C@@H](C)C(=O)NCC(=O)NCC(=O)N1CCC[C@H]1C(=O)N[C@@H](CO)C(=O)N[C@@H](CO)C(=O)NCC(N)=O)C(C)C)C(=O)O)C(=O)O [Compound 4] (HELM PEPTIDE1{H.[Aib].Q.G.T.F.T.S.D.K.S.K.Y.L.E.E.R.A.A.K.E.F.V.A.W.L.E.A.G.G.P.S.S.G.[am]}|PEPTIDE2{[CCCCCCCCCCCCCCCC(=O)[*:2]].[gGlu].[gGlu]}$PEPTIDE1,PEPTIDE2,10:R3-3:R2$$$V2.0; N-terminus assumed)",,−42%,-1.5 g,,26.0%,9.02 ± 1.74 mmol·h/L,57.4** %
